# Results: patent publication US8530652B2, “Pyrrolopyrazoles, potent kinase inhibitors” (Agouron Pharmaceuticals, Inc., priority 2005, dated 2013)
# Columns and labels:
# [1] = target: PAK4 kinase domain (PAK4 KD) (Homo sapiens (Human), UniProt O96013); experiment: PAK4 kinase domain enzymatic assay (coupled PK/LDH, NADH absorbance at 340 nm); assay type: biochemical; details: PAK4 kinase domain, 25 nM PAK4 KD, 0.04 mM ATP, pH 7.5
# Source text: Cloning, expression, and purification of recombinant PAK4 Kinase domain (PAK4 KD): The cDNA coding for PAK4 was amplified from the EST clone (#12) (purchased from Research Genetics) by using PCR. […] The PCR amplified product was cloned into Topo vector (Invitrogen Inc.), and verified by DNA sequencing. PAK4 KD was then subcloned into expression plasmid pET28a(+), pET24a(+), or pGST4.5. The recombinant plasmids containing PAK4 KD was transformed into BL21(DE3) cells for recombinant protein expression. […] The cells were then harvested and lyzed for protein purification. Ni-NTA column (pET28a(+), pET24a(+)) and glutathione column (pGST4.5) were used for the purification.
# PAK4 kinase domain enzymatic assay conditions: the enzymatic activity of PAK4 KD was measured by its ability to catalyze the transfer of a phosphate residue from a nucleoside triphosphate to an amino acid side chain of a commercially available peptide (amino acid sequence […]). The conversion of ATP to ADP accompanies the catalytic reaction. The PAK4 KD catalyzed production of ADP from ATP was coupled to the oxidation of NADH through the activities of pyruvate kinase (PK) and lactate dehydrogenase (LDH). The conversion of NADH to NAD^+ is monitored by the decrease in absorbance at 340 nm (e340=6.22 cm^−1mM^−1) using a Molecular Devices SPECTRAMAX 190 in conjunction with the Biomec FX. Typical reaction solutions contain 2 mM phosphoenolpyruvate, 0.35 mM NADH, 10 mM MgCl2, 1 mM DTT, 0.4 mM peptide ([…]) 0.04 mM ATP, 1 units/mL PK, 1 units/mL LDH, 0.01% Tween 20 in 50 mM HEPES, pH 7.5. […] The PAK KD Ki of each compound of the invention (the inhibitor) was calculated based on multiple of Percent Inhibition numbers of the inhibitor at different inhibitor concentrations. The peptide (amino sequence […]) was purchased from American Peptide Company. NADH, MgCl2, HEPES, DTT, ATP and PK/LDH were purchased from Sigma. Tween 20 was purchased from Calbiochem.
# [2] = target: PAK4 kinase activity in whole cells (TR-293-KDG, modified HEK 293 overexpressing GEF-H1b and PAK4 KD) (Homo sapiens (Human), UniProt O96013); experiment: PAK4 cellular assay: sandwich ELISA of PAK4-dependent phosphorylation of GEF-H1b in TR-293-KDG cells; assay type: cell-based; details: doxycycline-induced, 3-hour exposure, phospho-GEF-H1b ELISA
# Chain of PAK4 kinase activity in whole cells (TR-293-KDG, modified HEK 293 overexpressing GEF-H1b and PAK4 KD) (O96013 321-572): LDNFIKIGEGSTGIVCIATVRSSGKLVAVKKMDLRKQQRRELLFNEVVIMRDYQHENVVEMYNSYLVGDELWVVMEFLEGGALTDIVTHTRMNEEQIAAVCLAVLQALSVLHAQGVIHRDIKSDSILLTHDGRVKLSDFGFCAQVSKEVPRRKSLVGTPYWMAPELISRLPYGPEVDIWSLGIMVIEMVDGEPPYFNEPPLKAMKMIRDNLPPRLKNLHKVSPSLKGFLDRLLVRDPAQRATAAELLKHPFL
# Source text: A sandwich ELISA method was used to measure the PAK4 kinase activity in whole cells. The level of PAK4-dependent phosphorylation of GEF-H1b can be determined by monitoring the binding of a phosphospecific antibody to GEF-H1b. A modified HEK 293 cell line is used in the bioassay and it has been engineered to overexpress both GEF-H1b and the kinase domain (KD) of PAK4. The KD of PAK4 is inducible in this cell line by tetracycline (Trex system, Invitrogen). The name of this cell line has been designated TR-293-KDG. To establish a phosphorylation event on GEF-H1, cells are induced with doxycycline to express the PAK4 KD. […] Candidate substance effect is measured as the ability to block this phosphorylation event.
# ELISA plate was prepared by pre-coating the plates with a capture antibody (α-HA-tag mouse monoclonal antibody), blocked with BSA, and washed in 0.1% tween 20 in tris-buffered saline (TBST). Tissue culture plates (precoated with poly-D-lysine) were seeded with TR-293-KDG cells. The TR-293-KDG Cells were induced to express the PAK4 KD with doxycycline overnight and subsequently & concomitantly treated with candidate substances or diluent for an additional 3-hour, continuous exposure. Cells were then lysed with a modified RIPA buffer supplemented with protease inhibitors. The fresh whole cell lysates were then added to the ELISA plate for 2-hours. Between all subsequent steps plates were washed 4 times with TBST. Detection antibody (recognizing the phospho-specific eptitope on GEF-H1b) was added for 1 hour, followed by addition of an enzyme linked goat α-rabbit secondary antibody for 45 minutes. […] EC50 values were calculated by sigmoid curve fitting using a four-parameter analysis.
# Chain of PAK4 kinase domain (PAK4 KD) (O96013 321-572): as above
Ki [1] [nM],EC50 [2] [nM],Structure (SMILES)
41,> 2000,"CC1(C)c2[nH]nc(Nc3ncnc4ccsc34)c2CN1C(=O)N[C@H]1C[C@@H]1c1ccccc1 (relative stereo) [Example 1, 6,6-dimethyl-N-[trans-2-phenylcyclopropyl]-3-(thieno[3,2-d]pyrimidin-4-ylamino)-4,6-dihydropyrrolo[3,4-c]pyrazole-5(1H)-carboxamide]"
14,36,"CC1(C)c2[nH]nc(Nc3nc(Cl)nc4ccsc34)c2CN1C(=O)N[C@@H]1C[C@H]1c1ccccc1 (relative stereo) [Example 2, 3-[(2-chlorothieno[3,2-d]pyrimidin-4-yl)amino]-6,6-dimethyl-N-[trans-2-phenylcyclopropyl]-4,6-dihydropyrrolo[3,4-c]pyrazole-5(1H)-carboxamide]"
87,> 4000,"CCCOc1nc(Cl)nc(Nc2n[nH]c3c2CN(C(=O)N[C@@H]2C[C@H]2c2ccccc2)C3(C)C)n1 (relative stereo) [Example 7, 3-[(4-chloro-6-propoxy-1,3,5-triazin-2-yl)amino]-6,6-dimethyl-N-[trans-2-phenylcyclopropyl]-4,6-dihydropyrrolo[3,4-c]pyrazole-5(1H)-carboxamide]"
270,> 4000,"CC1(C)c2[nH]nc(Nc3nc(Cl)nc(Cl)n3)c2CN1C(=O)N[C@@H]1C[C@H]1c1ccccc1 (relative stereo) [Example 9, 3-[(4,6-dichloro-1,3,5-triazin-2-yl)amino]-6,6-dimethyl-N-[trans-2-phenylcyclopropyl]-4,6-dihydropyrrolo[3,4-c] pyrazole-5(1H)-carboxamide]"
120,> 4000,"COc1nc(Cl)nc(Nc2n[nH]c3c2CN(C(=O)N[C@@H]2C[C@H]2c2ccccc2)C3(C)C)n1 (relative stereo) [Example 10, 3-[(4-chloro-6-methoxy-1,3,5-triazin-2-yl)amino]-6,6-dimethyl-N-[trans-2-phenylcyclopropyl]-4,6-dihydropyrrolo[3,4-c]pyrazole-5(1H)-carboxamide]"
90,500,"CN(C)c1nc(Cl)nc(Nc2n[nH]c3c2CN(C(=O)N[C@@H]2C[C@H]2c2ccccc2)C3(C)C)n1 (relative stereo) [Example 15, 3-{[4-chloro-6-(dimethylamino)-1,3,5-triazin-2-yl]amino}-6,6-dimethyl-N-[trans-2-phenylcyclopropyl]-4,6-dihydropyrrolo [3,4-c]pyrazole-5(1H)-carboxamide]"
80,968,"CC1(C)c2[nH]nc(Nc3ccnc(C(F)(F)F)n3)c2CN1C(=O)N[C@H]1C[C@@H]1c1ccccc1 (relative stereo) [Example 30, 6,6-dimethyl-N-[trans-2-phenylcyclopropyl]-3-{[2-(trifluoromethyl)pyrimidin-4-yl]amino}-4,6-dihydropyrrolo[3,4-c]pyrazole-5(1H)-carboxamide]"
47,618,"CC1(C)c2[nH]nc(Nc3ccnc(C#N)n3)c2CN1C(=O)N[C@@H]1C[C@H]1c1ccccc1 (relative stereo) [Example 33, 3-[(2-cyanopyrimidin-4-yl)amino]-6,6-dimethyl-N-[trans-2-phenylcyclopropyl]-4,6-dihydropyrrolo[3,4-c]pyrazole-5(1H)-carboxamide]"
21,778,"Cc1nc(Nc2n[nH]c3c2CN(C(=O)N[C@@H]2C[C@H]2c2ccccc2)C3(C)C)cc(N2CCOCC2)n1 (relative stereo) [Example 34, 6,6-dimethyl-3-[(2-methyl-6-morpholin-4-ylpyrimidin-4-yl)amino]-N-[trans-2-phenylcyclopropyl]-4,6-dihydropyrrolo[3,4-c]pyrazole-5(1H)-carboxamide]"
260,262,"Cc1cc2c(Nc3n[nH]c4c3CN(C(=O)N[C@@H]3C[C@H]3c3ccccc3)C4(C)C)ncnc2s1 (relative stereo) [Example 35, 6,6-dimethyl-3-[(6-methylthieno[2,3-d]pyrimidin-4-yl)amino]-N-[trans-2-phenylcyclopropyl]-4,6-dihydropyrrolo[3,4-c]pyrazole-5(1H)-carboxamide]"
–,> 4000,"Cn1cnc2c(Nc3n[nH]c4c3CN(C(=O)N[C@@H]3C[C@H]3c3ccccc3)C4(C)C)ncnc21 (relative stereo) [Example 36, 6,6-dimethyl-3-[(9-methyl-9H-purin-6-yl)amino]-N-[trans-2-phenylcyclopropyl]-4,6-dihydropyrrolo[3,4-c]pyrazole-5(1H)-carboxamide]"
270,805,"CCOc1ncc(F)c(Nc2n[nH]c3c2CN(C(=O)N[C@@H]2C[C@H]2c2ccccc2)C3(C)C)n1 (relative stereo) [Example 37, 3-[(2-ethoxy-5-fluoropyrimidin-4-yl)amino]-6,6-dimethyl-N-[trans-2-phenylcyclopropyl]-4,6-dihydropyrrolo[3,4-c]pyrazole-5(1H)-carboxamide]"
96,1470,"Cc1nc(Nc2n[nH]c3c2CN(C(=O)N[C@@H]2C[C@H]2c2ccccc2)C3(C)C)cc(N(C)C)n1 (relative stereo) [Example 38, 3-{[6-(dimethylamino)-2-methylpyrimidin-4-yl]amino}-6,6-dimethyl-N-[trans-2-phenylcyclopropyl]-4,6-dihydropyrrolo[3,4-c]pyrazole-5(1H)-carboxamide]"
–,> 4000,"Cc1nccc(Nc2n[nH]c3c2CN(C(=O)N[C@@H]2C[C@H]2c2ccccc2)C3(C)C)n1 (relative stereo) [Example 39, 6,6-dimethyl-3-[(2-methylpyrimidin-4-yl)amino]-N-[trans-2-phenylcyclopropyl]-4,6-dihydropyrrolo[3,4-c]pyrazole-5(1H)-carboxamide]"
18,98,"CC1(C)c2[nH]nc(Nc3nc(C#N)nc4ccccc34)c2CN1C(=O)N[C@@H]1C[C@H]1c1ccccc1 (relative stereo) [Example 40, 3-[(2-cyanoquinazolin-4-yl)amino]-6,6-dimethyl-N-[trans-2-phenylcyclopropyl]-4,6-dihydropyrrolo[3,4-c]pyrazole-5(1H)-carboxamide]"
94,610,"CC1(C)c2[nH]nc(Nc3ncnc4sccc34)c2CN1C(=O)N[C@@H]1C[C@H]1c1ccccc1 (relative stereo) [Example 42, 6,6-dimethyl-N-[trans-2-phenylcyclopropyl]-3-(thieno[2,3-d]pyrimidin-4-ylamino)-4,6-dihydropyrrolo[3,4-c]pyrazole-5(1H)-carboxamide]"
–,> 4000,"CN(C)C[C@@H](NC(=O)N1Cc2c(Nc3ccnc(C(F)(F)F)n3)n[nH]c2C1(C)C)c1ccccc1 [Example 55, N-[(1S)-2-(dimethylamino)-1-phenylethyl]-6,6-dimethyl-3-{[2-(trifluoromethyl)pyrimidin-4-yl]amino}-4,6-dihydropyrrolo[3,4-c]pyrazole-5(1H)-carboxamide]"

Structure (SMILES),Ki [1] [nM],EC50 [2] [nM]
"Cc1nc(Nc2n[nH]c3c2CN(C(=O)N[C@H]2C[C@@H]2c2ccccc2)C3(C)C)c2sccc2n1 (relative stereo) [Example 41, 6,6-dimethyl-3-[(2-methylthieno[3,2-d]pyrimidin-4-yl)amino]-N-[trans-2-phenylcyclopropyl]-4,6-dihydropyrrolo[3,4-c]pyrazole-5(1H)-carboxamide]",24,147
